What follows are compounds tested on RMG-1 viability, CellTiterGlo ATP luminescence, 96 h (assay: cytotoxicity in PAX8-dependent RMG-1 cells, dose response, cell-based, cherry-pick (AID 687029)).

COc1ccc(N2C(=O)CC(Sc3nnc(-c4ccccc4)o3)C2=O)cc1 (stereo unspecified) and O=c1cc(-c2ccccc2)oc2ccc3ccccc3c12 cannot be ordered by AC50: under 0.26 µM for the first, under 0.26 µM for the second.

Compared with C[C@@H]1CN([C@H](C)CO)C(=O)c2cc(NS(=O)(=O)c3ccc(Cl)cc3)ccc2O[C@@H](C)CCCCO[C@@H]1CN(C)Cc1ccccc1, C[C@H](CO)N1C[C@H](C)[C@H](CN(C)Cc2ccc(C(F)(F)F)cc2)OCCCC[C@H](C)Oc2ccc(NS(=O)(=O)c3ccccc3)cc2C1=O is higher in AC50: under 0.26 µM for the first, 0.927 µM for the second.

Going from COc1cc(-c2cnc3c(NC=O)cc(-c4ccccc4)cn23)cc(OC)c1OC to COc1cc(OC)c2c(-c3cccc(-c4ccc(OC)c(F)c4)c3)cc(=O)oc2c1, the AC50 rises from under 0.26 µM to 11.4 µM.

COCCn1c(C)cc(C2=NNC(=NC3CC3)SC2)c1C and Cc1cc(C2=NNC(=NC3CC3)SC2)c(C)n1-c1ccccc1F cannot be ordered by AC50: under 0.26 µM for the first, under 0.26 µM for the second.

O=C(Nc1cccc(-c2ccc(N3CCCCC3)nn2)c1)C(F)(F)F and CCN(CC(=O)Nc1c(F)cccc1F)C(=O)c1cc(S(=O)(=O)N(C)C)ccc1N1CCCC1 cannot be ordered by AC50: under 0.26 µM for the first, under 0.26 µM for the second.

Compared with CCOC(=O)c1c(-c2ccc(F)cc2)csc1NC(=O)CN1C(=O)NC2(CCCCC2C)C1=O (stereo unspecified), CCOC(=O)c1c(C)[nH]c2c1-c1ccccc1C(=O)C2=O is lower in AC50: 12.4 µM for the first, under 0.26 µM for the second.

First: COc1ccc(S(=O)(=O)Nc2ccc3c(c2)C(=O)N([C@@H](C)CO)C[C@H](C)[C@@H](CN(C)Cc2ccc(C(F)(F)F)cc2)OCCCC[C@H](C)O3)cc1
Second: C[C@@H]1CCCCO[C@H](CN(C)Cc2ccc(C(F)(F)F)cc2)[C@H](C)CN([C@H](C)CO)C(=O)c2cc(NS(=O)(=O)c3cccs3)ccc2O1
The AC50 of the first is higher: 0.372 µM for the first, under 0.26 µM for the second.

COc1ccc(NC(=O)c2c(Nc3ccccc3)sc(C(=O)c3ccc(F)cc3)c2N)cc1 and COc1ccc(/C=N/NC(=O)c2[nH]c3ccc(Br)cc3c2-c2ccccc2)cc1 cannot be ordered by AC50: under 1 µM for the first, under 0.26 µM for the second.

Cc1cc(C(C)(C)C)cc(C)c1Cn1c2[n+](c3ccc(C(F)(F)F)cc31)CCCCC2 and O=C(NCc1cc(C(F)(F)F)ccc1Cl)c1cccc2c1C(=O)c1ccc(N3CCC(N4CCCCC4)CC3)cc1S2(=O)=O cannot be ordered by AC50: under 0.26 µM for the first, under 0.26 µM for the second.

Cc1cnc(NC(=O)c2ccc3c(c2)OCCO3)s1 and O=C(CN1C(=O)c2ccccc2S1(=O)=O)c1ccc2c(c1)OCCO2 cannot be ordered by AC50: under 0.26 µM for the first, under 0.26 µM for the second.

COc1cccc(CC(=O)Nc2nc3c(s2)C(=O)CC(C)(C)C3)c1 and COc1ccc(-n2nc3c(N4CCC(C(=O)NCc5cccc(C)c5)CC4)nnc(C)c3c2C)cc1 cannot be ordered by AC50: under 0.26 µM for the first, under 0.26 µM for the second.

First: CN(C(=O)OC(C)(C)C)c1ccc(-c2nc3ccccc3s2)cc1
Second: COc1ccccc1C(=O)Nc1nc2ccccc2[nH]1
The AC50 of the first is lower: under 0.26 µM for the first, 12.3 µM for the second.

Compared with COc1ccc(Cn2cc3c(-c4ccc(F)cc4)nnc-3c3cc(OC)c(OC)cc32)cc1, COc1ccc(CCNc2nnc(Sc3nnnn3-c3ccccc3)s2)cc1OC is 1.6-fold lower in AC50: 21.3 µM for the first, 13 µM for the second.

First: N#Cc1ccc(-c2ccc(C3[C@@H]4CN(C(=O)C5CC5)C[C@H]3N4)cc2)cc1 (stereo partly specified)
Second: COc1ccc(C)cc1NS(=O)(=O)c1ccc(-c2cnc(C3CC3)o2)cc1
The AC50 of the first is lower: under 0.26 µM for the first, 0.376 µM for the second.

C[C@@H]1CN([C@H](C)CO)S(=O)(=O)c2ccc(C#CC3CCCC3)cc2O[C@@H]1CN(C)C(=O)Cc1ccncc1 and C[C@H](CO)N1C[C@H](C)[C@H](CN(C)S(=O)(=O)c2ccc(Cl)cc2)OCCCC[C@H](C)Oc2ccc(NS(=O)(=O)c3ccc(F)cc3)cc2C1=O cannot be ordered by AC50: under 0.26 µM for the first, under 0.26 µM for the second.

CSC(=Nc1ccccc1)N=C(SCc1ccccc1)N(C)C and CN1c2ccccc2N(C)C1(C)c1ccccc1 cannot be ordered by AC50: under 0.26 µM for the first, under 0.26 µM for the second.

O=[N+]([O-])c1cccnc1S(=O)(=O)c1ccccc1 and Oc1cccc2cc(Nc3ccccc3)cnc12 cannot be ordered by AC50: under 0.26 µM for the first, under 0.26 µM for the second.

C[C@@H]1O[C@@H](O[C@@H]2C=C3CC[C@@H]4C(CC[C@]5(C)[C@@H](c6ccc(=O)oc6)CC[C@]45O)[C@@]3(C)CC2)[C@H](O)[C@H](O)[C@H]1O (stereo partly specified) and C[C@]12CCC3C(CCC4=CC(O)CC[C@@]43/C=N/O)C1(O)CCC2C1=CC(=O)OC1 (stereo partly specified) cannot be ordered by AC50: under 0.26 µM for the first, under 0.26 µM for the second.

Compared with COc1ccc(-c2nc3c(c(SCC(=O)Nc4cccc(O)c4)n2)Cc2c(CO)cnc(C)c2O3)cc1, CCC(=O)NC(c1ccc(C)cc1)c1ccc2cccnc2c1O (stereo unspecified) is lower in AC50: 10.5 µM for the first, under 0.26 µM for the second.

CCCC1=Nc2cc(C(=O)NCCCOCC)ccc2Sc2ccccc21 and O=C(CCC(=O)c1ccccc1)NCCc1c[nH]c2ccccc12 cannot be ordered by AC50: under 0.26 µM for the first, under 0.26 µM for the second.

First: Cc1cc(CN(C)C(=O)c2cc(COc3ccc4ncccc4c3)on2)on1
Second: Cn1c(SCC(=O)c2ccccc2)nnc1-c1ccccn1
The AC50 of the first is lower: under 0.26 µM for the first, 1.42 µM for the second.

Compared with Cc1ccc2c(c1)c1c3n2CCN(CC(N)=O)C3CCC1 (stereo unspecified), Cc1ccc(Cl)cc1N1CCN(C(=O)c2noc(C)c2[N+](=O)[O-])CC1 is lower in AC50: 12.3 µM for the first, under 0.26 µM for the second.

CC1CN(CC(O)COC(c2ccccc2)c2ccccc2)CC(C)O1 (stereo unspecified) and C=C(C)c1nc(Oc2ccccc2)nc(Oc2ccccc2)n1 cannot be ordered by AC50: under 0.26 µM for the first, under 0.26 µM for the second.

Cc1ccc(NC(=O)Cn2ncc(Cl)c(Cl)c2=O)cc1S(=O)(=O)N1CCCCC1 and CCN(CC)S(=O)(=O)c1cc(NC(=O)Cn2ncc(Cl)c(Cl)c2=O)ccc1C cannot be ordered by AC50: under 0.26 µM for the first, under 0.26 µM for the second.

Compared with FC(F)(F)c1nnc2c(Sc3ccccn3)nc3ccccc3n12, Cn1ncc2c(O/N=C(\N)c3ccc(C(F)(F)F)cc3)ncnc21 is lower in AC50: 14.2 µM for the first, under 0.26 µM for the second.

Going from CCOc1ccc(NC(=O)Nc2cc(OCC(F)(F)F)cc(OCC(F)(F)F)c2)cc1 to O=C(Nc1cccc(Cl)c1)Nc1nnc(-c2ccncc2)s1, the AC50 falls from 9.37 µM to under 0.26 µM.

C=C(C(=O)c1ccccc1)C(C(=C)C(=O)c1ccccc1)c1ccc(OC)cc1 and C=C(C)c1cccc(C(C)(C)NC(=O)N2CCN(c3ccccc3OC)CC2)c1 cannot be ordered by AC50: under 0.26 µM for the first, under 0.26 µM for the second.

Compared with Cn1nnnc1Sc1ncnc2scc(-c3cccc(S(C)(=O)=O)c3)c12, S=c1sc2c(Cl)ncnc2n1-c1ccccc1 is lower in AC50: 10.2 µM for the first, under 0.26 µM for the second.

CCOc1ccc(-n2c(=S)sc3c(=O)[nH]c(SCC(=O)NCC4CCCO4)nc32)cc1 (stereo unspecified) and Cc1ccccc1CNC(=O)C1CCCN(c2nnc(C)c3c(C)n(-c4ccccc4)nc23)C1 (stereo unspecified) cannot be ordered by AC50: under 0.26 µM for the first, under 0.26 µM for the second.

O=C(c1cc([N+](=O)[O-])ccc1N1CCOCC1)N1CCN(c2ccccc2)CC1 and Brc1ccc(-n2cc(-c3ccccc3)c3c(NN4CCOCC4)ncnc32)cc1 cannot be ordered by AC50: under 0.26 µM for the first, under 0.26 µM for the second.

Compared with O=C(NC12CC3CC(CC(C3)C1)C2)c1ccc([N+](=O)[O-])o1, CC(=O)[C@@]1(O)Cc2c(O)c3c(c(O)c2[C@H](O[C@H]2C[C@H](N)[C@H](O)[C@H](C)O2)C1)C(=O)c1ccccc1C3=O is higher in AC50: under 0.26 µM for the first, 9.48 µM for the second.

COc1cc(/C=N/O)ccc1OCc1ccc(C(=O)O)cc1 and C(=Cc1cnc2ccccc2n1)c1ccc2c(c1)OCO2 are within 1.5-fold of each other in AC50: 12.8 µM for the first, 12.9 µM for the second.

O=C1c2cccc3cc([N+](=O)[O-])cc(c23)C(=O)N1CCN1CCCC1 and CCC(c1nnnn1Cc1ccccc1)N1CCC(n2c(=O)[nH]c3ccccc32)CC1 (stereo unspecified) cannot be ordered by AC50: under 0.26 µM for the first, under 0.26 µM for the second.

COc1cc(C2C3=C(COC3=O)Oc3cc4c(cc32)OCO4)cc(OC)c1O (stereo unspecified) and C#CCN(C[C@@H]1[C@@H](OC(=O)NCc2ccccc2F)[C@@H](OC(=O)NCc2ccccc2F)Cn2c(=O)ccc(=O)n21)S(=O)(=O)c1ccc(C)cc1 cannot be ordered by AC50: under 0.26 µM for the first, under 0.26 µM for the second.

First: CC(C)CCCCCCCCCCCCC(=O)NCC(=O)NC1C(C)OC(Nc2ncnc3nc[nH]c23)C(O)C1O (stereo unspecified)
Second: OCCCNc1nccc(-c2cc(Nc3cccc(Cl)c3)ncn2)n1
The AC50 of the first is higher: 0.275 µM for the first, under 0.26 µM for the second.

With Cc1nnc(N/N=C/c2cc(C)n(-c3ccc(F)cc3)c2C)n1N the AC50 was 8.36 µM.

Reference: PubChem BioAssay AID687029 (Broad Institute, 2013)
